Measurements reported in ChEMBL document CHEMBL3885861, “Open TG-GATES”.

Species: Rattus norvegicus
Experiment: Open TG-GATES - Regimen: Single
Type: toxicity, organism-based, Sprague-Dawley
Set-up: regimen Single, gender Male, age 6 weeks
Details: in vivo, po, 1000 mg/kg, route gavage, dose level Middle; for APTT / Bas / Eos / Fbg / Hb / Ht / Lym / MCH / MCHC / MCV / Mono / Neu / PT / Plat / RBC / Ret / WBC: tissue Blood; for KIDNEY_L / KIDNEY_R / KIDNEY_TOTAL: tissue Kidney; for LIVER: tissue Liver; for A/G / ALP / ALT / AST / BUN / CRE / Ca / Cl / DBIL / GLC / IP / K / LDH / Na / PL / RALB / TBIL / TC / TG / TP / gamma-GTP: tissue Plasma

SMILES: Clc1c(Cl)c(Cl)c(Cl)c(Cl)c1Cl [PERCHLOROBENZENE]
- TERMINAL_BW (3 h): 222.7 g
- APTT (3 h): 18.7 s
- Bas (3 h): 0%
- Eos (3 h): 1%
- Fbg (3 h): 227 mg/dL
- Hb (3 h): 13.3 g/dL
- Ht (3 h): 38%
- Lym (3 h): 78%
- MCH (3 h): 21.8 pg
- MCHC (3 h): 35%
- MCV (3 h): 62.1 fL
- Mono (3 h): 3.2%
- Neu (3 h): 16.4%
- PT (3 h): 11.8 s
- Plat (3 h): 122.1 x10_4/uL
- RBC (3 h): 612 x10_4/ul
- Ret (3 h): 7.6%
- WBC (3 h): 85.3 x10_2/uL
- KIDNEY_L (3 h): 1 g
- KIDNEY_R (3 h): 1 g
- KIDNEY_TOTAL (3 h): 1.9 g
- LIVER (3 h): 10.4 g
- A/G (3 h): 1.7
- ALP (3 h): 992 IU/L
- ALT (3 h): 35.2 IU/L
- AST (3 h): 79.2 IU/L
- BUN (3 h): 11.6 mg/dL
- CRE (3 h): 0.4 mg/dL
- Ca (3 h): 10.9 mg/dL
- Cl (3 h): 104 meq/L
- DBIL (3 h): 0.066 mg/dL
- GLC (3 h): 198.4 mg/dL
- IP (3 h): 8.8 mg/dL
- K (3 h): 3.8 meq/L
- LDH (3 h): 214 IU/L
- Na (3 h): 141.6 meq/L
- PL (3 h): 143.8 mg/dL
- RALB (3 h): 3.5 g/dL
- TBIL (3 h): 0.1 mg/dL
- TC (3 h): 68.6 mg/dL
- TG (3 h): 94.8 mg/dL
- TP (3 h): 5.5 g/dL
- gamma-GTP (3 h): 1 IU/L
- TERMINAL_BW (6 h): 217.7 g
- APTT (6 h): 18.9 s
- Bas (6 h): 0.2%
- Eos (6 h): 1%
- Fbg (6 h): 223.2 mg/dL
- Hb (6 h): 13.4 g/dL
- Ht (6 h): 38.5%
- Lym (6 h): 71.2%
- MCH (6 h): 21.6 pg
- MCHC (6 h): 34.9%
- MCV (6 h): 62.1 fL
- Mono (6 h): 3.2%
- Neu (6 h): 23.4%
- PT (6 h): 12.2 s
- Plat (6 h): 132.8 x10_4/uL
- RBC (6 h): 620.2 x10_4/ul
- Ret (6 h): 7.3%
- WBC (6 h): 100.6 x10_2/uL
- KIDNEY_L (6 h): 1 g
- KIDNEY_R (6 h): 0.9 g
- KIDNEY_TOTAL (6 h): 1.9 g
- LIVER (6 h): 9 g
- A/G (6 h): 1.7
- ALP (6 h): 1078.8 IU/L
- ALT (6 h): 33.4 IU/L
- AST (6 h): 79 IU/L
- BUN (6 h): 10 mg/dL
- CRE (6 h): 0.4 mg/dL
- Ca (6 h): 10.5 mg/dL
- Cl (6 h): 103.4 meq/L
- DBIL (6 h): 0.064 mg/dL
- GLC (6 h): 186 mg/dL
- IP (6 h): 9 mg/dL
- K (6 h): 4.1 meq/L
- LDH (6 h): 224 IU/L
- Na (6 h): 141.4 meq/L
- PL (6 h): 127.4 mg/dL
- RALB (6 h): 3.4 g/dL
- TBIL (6 h): 0.1 mg/dL
- TC (6 h): 69.4 mg/dL
- TG (6 h): 55.2 mg/dL
- TP (6 h): 5.4 g/dL
- gamma-GTP (6 h): 1 IU/L
- TERMINAL_BW (9 h): 216.4 g
- APTT (9 h): 19.1 s
- Bas (9 h): 0.2%
- Eos (9 h): 1%
- Fbg (9 h): 220.6 mg/dL
- Hb (9 h): 13.5 g/dL
- Ht (9 h): 38.5%
- Lym (9 h): 72%
- MCH (9 h): 21.2 pg
- MCHC (9 h): 34.9%
- MCV (9 h): 60.6 fL
- Mono (9 h): 2.8%
- Neu (9 h): 23%
- PT (9 h): 12.3 s
- Plat (9 h): 124.7 x10_4/uL
- RBC (9 h): 636 x10_4/ul
- Ret (9 h): 6.9%
- WBC (9 h): 72.6 x10_2/uL
- KIDNEY_L (9 h): 1 g
- KIDNEY_R (9 h): 1 g
- KIDNEY_TOTAL (9 h): 1.9 g
- LIVER (9 h): 8.8 g
- A/G (9 h): 1.6
- ALP (9 h): 926.6 IU/L
- ALT (9 h): 27.4 IU/L
- AST (9 h): 63.4 IU/L
- BUN (9 h): 11.2 mg/dL
- CRE (9 h): 0.3 mg/dL
- Ca (9 h): 10.5 mg/dL
- Cl (9 h): 103.4 meq/L
- DBIL (9 h): 0.058 mg/dL
- GLC (9 h): 201.2 mg/dL
- IP (9 h): 10.4 mg/dL
- K (9 h): 3.8 meq/L
- LDH (9 h): 191.4 IU/L
- Na (9 h): 142 meq/L
- PL (9 h): 121.2 mg/dL
- RALB (9 h): 3.3 g/dL
- TBIL (9 h): 0.1 mg/dL
- TC (9 h): 61 mg/dL
- TG (9 h): 39 mg/dL
- TP (9 h): 5.4 g/dL
- gamma-GTP (9 h): 1.2 IU/L
- TERMINAL_BW (24 h): 230.6 g
- APTT (24 h): 18.3 s
- Bas (24 h): 0.2%
- Eos (24 h): 1%
- Fbg (24 h): 240.8 mg/dL
- Hb (24 h): 13.6 g/dL
- Ht (24 h): 39.3%
- Lym (24 h): 74.2%
- MCH (24 h): 21.3 pg
- MCHC (24 h): 34.5%
- MCV (24 h): 61.6 fL
- Mono (24 h): 3%
- Neu (24 h): 20.6%
- PT (24 h): 11.7 s
- Plat (24 h): 128 x10_4/uL
- RBC (24 h): 637.6 x10_4/ul
- Ret (24 h): 6.5%
- WBC (24 h): 80.8 x10_2/uL
- KIDNEY_L (24 h): 1 g
- KIDNEY_R (24 h): 1 g
- KIDNEY_TOTAL (24 h): 2.1 g
- LIVER (24 h): 11.1 g
- A/G (24 h): 1.5
- ALP (24 h): 901 IU/L
- ALT (24 h): 35.4 IU/L
- AST (24 h): 66.2 IU/L
- BUN (24 h): 14.2 mg/dL
- CRE (24 h): 0.4 mg/dL
- Ca (24 h): 11 mg/dL
- Cl (24 h): 103.4 meq/L
- DBIL (24 h): 0.056 mg/dL
- GLC (24 h): 204.8 mg/dL
- IP (24 h): 6.9 mg/dL
- K (24 h): 3.8 meq/L
- LDH (24 h): 230.6 IU/L
- Na (24 h): 141.4 meq/L
- PL (24 h): 152.8 mg/dL
- RALB (24 h): 3.4 g/dL
- TBIL (24 h): 0.096 mg/dL
- TC (24 h): 80.4 mg/dL
- TG (24 h): 133.6 mg/dL
- TP (24 h): 5.6 g/dL
- gamma-GTP (24 h): 1 IU/L
